The numbers were not newly measured in publication PMC8621674, “Formulation and In Vivo Evaluation of a Solid Self-Emulsifying Drug Delivery System Using Oily Liquid Tocotrienols as Model Active Substance” (Pharmaceutics, 2021), which cites them from elsewhere.

For this data set the following is noted: no reference given.

As for poloxamer 188, the HLB value was 29. Regarding “caprylocaproyl macrogol-8 glycerides [Labrasol®]”, the HLB value was 12.
